Results on two compounds are retold here after patent publication US20260234107A1, “TRYPTAMINES AND METHODS OF TREATING MOOD DISORDERS” (priority 2022, published 2026).

Bounds are passed on as bounds.

Series [1] is described as follows: Stability in rat brain homogenate. In kind it is in vitro ADME, male Sprague Dawley rats. As to conditions: rat brain homogenate, 1 μM, 37° C.; for half-life at 1 µM: male, Sprague Dawley.
Series [2] concerns the target T1, 5-HT2C receptor (Homo sapiens, UniProt P28335).
T1 sequence (P28335 33-458): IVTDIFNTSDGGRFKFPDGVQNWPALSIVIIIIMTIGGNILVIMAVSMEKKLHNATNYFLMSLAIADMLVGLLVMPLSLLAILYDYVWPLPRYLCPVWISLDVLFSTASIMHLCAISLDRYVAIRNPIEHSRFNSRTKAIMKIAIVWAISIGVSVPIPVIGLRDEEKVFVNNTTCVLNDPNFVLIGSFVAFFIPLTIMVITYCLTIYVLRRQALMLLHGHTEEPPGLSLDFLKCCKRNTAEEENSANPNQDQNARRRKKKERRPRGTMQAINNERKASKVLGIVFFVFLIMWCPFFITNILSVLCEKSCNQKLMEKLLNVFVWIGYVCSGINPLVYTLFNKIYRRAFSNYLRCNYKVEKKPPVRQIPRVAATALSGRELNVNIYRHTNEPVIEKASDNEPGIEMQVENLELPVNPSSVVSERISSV
Description: 5-HT2C receptor radioligand binding ([3H]mesulergine). As to conditions: for Ki: HEK293 stable cell line, 2 nM [3H]mesulergine; for binding to the 5-HT2C receptor (in words): compared with 5-HT2A receptor binding. How it is done:
The binding affinities of disclosed compounds at the mesulergine binding site of the 5-HT2C receptor were determined in radioligand binding experiments.
Method. Affinity of the test compounds for the 5-HT2C receptor was determined in radioligand binding experiments with [^3H]mesulergine by WuXi AppTec (Hong Kong) Limited, using methods adapted from the literature and under conditions described in Table 11.

The target in the next series is T2, 5-HT1A (Homo sapiens, UniProt P08908).
T2 construct: host or cells: CHO cells
T2 sequence (P08908 1-422): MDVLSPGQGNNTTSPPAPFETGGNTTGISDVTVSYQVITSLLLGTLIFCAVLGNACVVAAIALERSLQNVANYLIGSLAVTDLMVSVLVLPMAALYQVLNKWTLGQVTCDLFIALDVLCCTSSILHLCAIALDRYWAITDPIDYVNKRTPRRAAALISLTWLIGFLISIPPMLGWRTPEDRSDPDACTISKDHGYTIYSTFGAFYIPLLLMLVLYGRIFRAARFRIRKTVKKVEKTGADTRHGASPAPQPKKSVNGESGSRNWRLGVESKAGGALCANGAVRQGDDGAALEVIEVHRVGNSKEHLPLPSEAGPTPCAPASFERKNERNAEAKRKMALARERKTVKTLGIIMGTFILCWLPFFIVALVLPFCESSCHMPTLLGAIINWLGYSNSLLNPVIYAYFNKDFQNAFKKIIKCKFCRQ
Description: FLIPR Ca2+ flux agonist assay at 5-HT1A. The series is classed as cell-based. The settings on record: for 5-HT1A % Act @ Max Dose: Ca2+ flux, CHO cells. Background: A change in cytosolic calcium serves as a functional read-out for many receptors and channels.

For series [3], the target named is T1, 5-HT2C receptor. Description: cell-based. The series is classed as cell-based. The settings on record: Ca2+ flux.
The next series has as its target T3, 5-HT2B (Homo sapiens, UniProt P41595).
T3 construct: host or cells: HEK293
The series is described as follows: FLIPR Ca2+ flux agonist assay at 5-HT2B. The series is classed as cell-based. As to conditions: for 5-HT2B % Act @ Max Dose: Ca2+ flux, HEK293, max dose.

Series [4] concerns the target T4, 5-HT2A (Homo sapiens, UniProt P28223). Description: FLIPR Ca2+ flux agonist assay at 5-HT2A. In kind it is cell-based. On the set-up: host or cells: HEK293. As to conditions: for 5-HT2A % Act @ Max Dose: Ca2+ flux, HEK293, max dose.
A short description of series [5]: Stability in mouse brain homogenate. As to conditions: mouse brain homogenate, 1 μM, 37° C.; for half-life at 1 µM: male, CD-1. In kind it is in vitro ADME, male CD-1 mice.
A short description of series [6]: Metabolic stability in human liver microsomes (HLM). Further details: microsomal CLint / half-life: dose or concentration left out as unconfirmed. As to conditions: both, human, pooled human liver microsomes, pH 7.4. For orientation: Liver microsomes are vesicles of endoplasmic reticulum, rich in cytochrome P450 enzymes.
For series [7], the system named is monoamine oxidase A and B (MAO-A and MAO-B). Description: Stability in the presence of monoamine oxidases (human liver mitochondria preparation). Further details: half-life / microsomal CLint: dose or concentration left out as unconfirmed. The settings on record: for Remaining (t = 60 min) / half-life / microsomal CLint: human liver mitochondria; for half-life / microsomal CLint: human, pH 7.4. As for the experimental part: Liver Mitochondria Incubations. Human liver mitochondria (Xenotech H0610.M) were used.

The target in series [8] is T4, 5-HT2A. The series is described as follows: 5-HT2A receptor radioligand binding ([3H]ketanserin). The settings on record: HEK293 stable cell line, 1 nM [3H]ketanserin; read-out: 5-HT2A Ki (nM) ([3H]Ketanserin). How it is done: The binding affinities of disclosed compounds at the ketanserin binding site of the 5-HT2A receptor were determined in radioligand binding experiments.
Method. Affinity of the test compounds for the 5-HT2A receptor was determined in radioligand binding experiments with [^3H]ketanserin by WuXi AppTec (Hong Kong) Limited, using methods adapted from the literature and under conditions described in Table 4.

T3 sequence (P41595 whole entry, species assumed): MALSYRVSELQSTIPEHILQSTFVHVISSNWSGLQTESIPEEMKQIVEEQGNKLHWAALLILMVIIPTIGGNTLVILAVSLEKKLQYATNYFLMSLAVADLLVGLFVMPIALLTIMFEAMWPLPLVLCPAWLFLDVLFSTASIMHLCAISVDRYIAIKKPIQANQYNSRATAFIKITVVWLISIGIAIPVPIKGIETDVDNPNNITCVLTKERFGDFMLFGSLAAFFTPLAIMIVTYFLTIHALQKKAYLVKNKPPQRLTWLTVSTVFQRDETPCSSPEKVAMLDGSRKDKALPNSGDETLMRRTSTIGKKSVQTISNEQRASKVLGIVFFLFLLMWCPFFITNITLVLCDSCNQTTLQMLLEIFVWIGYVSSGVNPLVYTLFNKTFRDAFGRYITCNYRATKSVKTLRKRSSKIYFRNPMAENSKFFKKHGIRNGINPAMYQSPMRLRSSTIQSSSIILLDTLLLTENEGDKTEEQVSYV
T4 sequence (P28223 whole entry): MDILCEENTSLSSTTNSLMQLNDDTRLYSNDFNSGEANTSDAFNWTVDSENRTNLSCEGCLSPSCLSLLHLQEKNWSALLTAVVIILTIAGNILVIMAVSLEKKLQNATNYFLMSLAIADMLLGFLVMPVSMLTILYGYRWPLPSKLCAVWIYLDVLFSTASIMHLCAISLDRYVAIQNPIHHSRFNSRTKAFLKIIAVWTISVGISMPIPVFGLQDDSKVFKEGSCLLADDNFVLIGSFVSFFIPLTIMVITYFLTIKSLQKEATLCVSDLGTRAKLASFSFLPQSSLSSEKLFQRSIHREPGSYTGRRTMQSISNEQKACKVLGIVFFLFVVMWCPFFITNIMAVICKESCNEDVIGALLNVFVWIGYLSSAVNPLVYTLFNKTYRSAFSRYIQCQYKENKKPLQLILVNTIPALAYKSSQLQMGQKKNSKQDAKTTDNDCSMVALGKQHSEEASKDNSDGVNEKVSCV

For orientation: half-life means the time in which the quantity being followed falls by half. A word on the Ki: it is a dissociation constant, usually derived from enzyme kinetics or from competition with a known ligand. In general, EC50 refers to the concentration needed to bring the measured effect to its halfway point. For orientation: microsomal CLint means a measure of how fast metabolising enzymes remove a compound, apart from limits set by blood flow. On to `CC(C)n1cc(CCN(C)C)c2c(O)cc(F)cc21` [Compound 10, 3-(2-(dimethylamino)ethyl)-6-fluoro-1-isopropyl-1H-indol-4-ol], for which, in series [1], the half-life at 1 µM came out at 4.49 h and the “% Compound Remaining (after 120 min)” value is given as 71.4%. Besides, on 5-HT2C receptor [2], the affinity corresponds to a Ki of 10.5 nM and the “binding to the 5-HT2C receptor (in words)” value is “potent binding to the 5-HT2C receptor”. On 5-HT1A, the EC50 is greater than 100000 nM and the “5-HT1A % Act @ Max Dose” value is given as 1.85%. Further, at 5-HT2C receptor [3], the EC50 was found to be 30.1 nM, the “agonism at 5-HT2C (in words)” value is on record as “potent partial agonism” and the “5-HT2C % Act @ Max Dose” value was 43.06%. Moreover, on 5-HT2B, the EC50 is greater than 10000 nM and the “5-HT2B % Act @ Max Dose” value is recorded as 1.99%. Moreover, on 5-HT2A [4], the EC50 is greater than 1000 nM and the “5-HT2A % Act @ Max Dose” value stood at 1.28%. Also, in series [5], the half-life at 1 µM is greater than 4.82 h and the “% Compound Remaining (after 120 min)” value worked out at 80.9%. In series [6], this compound had a half-life of 1.78 h and a microsomal CLint of 12.9 µL/min/mg. In addition, the “stability in the presence of MAO (in words)” value in series [7] (human liver mitochondria preparation) was “intermediate stability”. For the same compound, in series [7], the “Remaining (t = 60 min)” value turned out to be 55.7%, the half-life is 1.31 h and the microsomal CLint was 29.4 µL/min/mg. The Ki at 5-HT2A [8] was determined as 1190 nM.

Turning to `CNCCc1cn(C(C)C)c2cc(F)cc(O)c12` [Compound 12, 6-fluoro-1-isopropyl-3-(2-(methylamino)ethyl)-1H-indol-4-ol], in series [1], the half-life at 1 µM came to 4.14 h and the “% Compound Remaining (after 120 min)” value is 70.4%. Also, on 5-HT2C receptor [2], the Ki worked out at 30.8 nM and the “binding to the 5-HT2C receptor (in words)” value was “potent binding to the 5-HT2C receptor”. Moreover, at 5-HT1A, the EC50 was greater than 100000 nM and the “5-HT1A % Act @ Max Dose” value is given as 3.96%. Also, on 5-HT2C receptor [3], the EC50 was 25.3 nM, the “agonism at 5-HT2C (in words)” value was “potent partial agonism” and the “5-HT2C % Act @ Max Dose” value is on record as 57.17%. At 5-HT2B, the EC50 is greater than 10000 nM and the “5-HT2B % Act @ Max Dose” value was 1.74%. For the same compound, at 5-HT2A [4], the EC50 was greater than 1000 nM and the “5-HT2A % Act @ Max Dose” value was found to be 10.55%. Moreover, in series [5], the half-life at 1 µM was 4.39 h and the “% Compound Remaining (after 120 min)” value was determined as 72.3%. Besides, in series [6], the half-life was greater than 2.42 h and the microsomal CLint is less than 9.6 µL/min/mg. Moreover, in series [7], the “Remaining (t = 60 min)” value is listed as 104.0%, the half-life is greater than 2.42 h and the microsomal CLint is less than 15.9 µL/min/mg. Further, on 5-HT2A [8], the Ki is greater than 1230 nM.
